Molecules are shown by their SMILES. Where a chain is given by its changes, count along the chain named. Positions of bridges follow the written chain, without caps; N, C: chain ends. Residues, ends and D or L forms follow the SMILES beside them.

By IC50 is commonly meant the concentration needed to halve the response being measured.

Holding throughout (assay): cell-based
The target in assay [1] is T1, hNav1.7 (Homo sapiens, UniProt Q15858).
T1 construct: expressed in transfected cells; host or cells: HEK293T
T1 sequence (O60939 30-215): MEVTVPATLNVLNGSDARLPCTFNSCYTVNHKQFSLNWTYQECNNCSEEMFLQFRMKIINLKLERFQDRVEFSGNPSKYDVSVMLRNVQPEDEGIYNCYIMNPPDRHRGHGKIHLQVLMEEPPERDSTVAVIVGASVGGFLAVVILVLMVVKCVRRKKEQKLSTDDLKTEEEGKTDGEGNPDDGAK
T1 sequence (Q15858 other isoform, or with tags, fused parts or gaps): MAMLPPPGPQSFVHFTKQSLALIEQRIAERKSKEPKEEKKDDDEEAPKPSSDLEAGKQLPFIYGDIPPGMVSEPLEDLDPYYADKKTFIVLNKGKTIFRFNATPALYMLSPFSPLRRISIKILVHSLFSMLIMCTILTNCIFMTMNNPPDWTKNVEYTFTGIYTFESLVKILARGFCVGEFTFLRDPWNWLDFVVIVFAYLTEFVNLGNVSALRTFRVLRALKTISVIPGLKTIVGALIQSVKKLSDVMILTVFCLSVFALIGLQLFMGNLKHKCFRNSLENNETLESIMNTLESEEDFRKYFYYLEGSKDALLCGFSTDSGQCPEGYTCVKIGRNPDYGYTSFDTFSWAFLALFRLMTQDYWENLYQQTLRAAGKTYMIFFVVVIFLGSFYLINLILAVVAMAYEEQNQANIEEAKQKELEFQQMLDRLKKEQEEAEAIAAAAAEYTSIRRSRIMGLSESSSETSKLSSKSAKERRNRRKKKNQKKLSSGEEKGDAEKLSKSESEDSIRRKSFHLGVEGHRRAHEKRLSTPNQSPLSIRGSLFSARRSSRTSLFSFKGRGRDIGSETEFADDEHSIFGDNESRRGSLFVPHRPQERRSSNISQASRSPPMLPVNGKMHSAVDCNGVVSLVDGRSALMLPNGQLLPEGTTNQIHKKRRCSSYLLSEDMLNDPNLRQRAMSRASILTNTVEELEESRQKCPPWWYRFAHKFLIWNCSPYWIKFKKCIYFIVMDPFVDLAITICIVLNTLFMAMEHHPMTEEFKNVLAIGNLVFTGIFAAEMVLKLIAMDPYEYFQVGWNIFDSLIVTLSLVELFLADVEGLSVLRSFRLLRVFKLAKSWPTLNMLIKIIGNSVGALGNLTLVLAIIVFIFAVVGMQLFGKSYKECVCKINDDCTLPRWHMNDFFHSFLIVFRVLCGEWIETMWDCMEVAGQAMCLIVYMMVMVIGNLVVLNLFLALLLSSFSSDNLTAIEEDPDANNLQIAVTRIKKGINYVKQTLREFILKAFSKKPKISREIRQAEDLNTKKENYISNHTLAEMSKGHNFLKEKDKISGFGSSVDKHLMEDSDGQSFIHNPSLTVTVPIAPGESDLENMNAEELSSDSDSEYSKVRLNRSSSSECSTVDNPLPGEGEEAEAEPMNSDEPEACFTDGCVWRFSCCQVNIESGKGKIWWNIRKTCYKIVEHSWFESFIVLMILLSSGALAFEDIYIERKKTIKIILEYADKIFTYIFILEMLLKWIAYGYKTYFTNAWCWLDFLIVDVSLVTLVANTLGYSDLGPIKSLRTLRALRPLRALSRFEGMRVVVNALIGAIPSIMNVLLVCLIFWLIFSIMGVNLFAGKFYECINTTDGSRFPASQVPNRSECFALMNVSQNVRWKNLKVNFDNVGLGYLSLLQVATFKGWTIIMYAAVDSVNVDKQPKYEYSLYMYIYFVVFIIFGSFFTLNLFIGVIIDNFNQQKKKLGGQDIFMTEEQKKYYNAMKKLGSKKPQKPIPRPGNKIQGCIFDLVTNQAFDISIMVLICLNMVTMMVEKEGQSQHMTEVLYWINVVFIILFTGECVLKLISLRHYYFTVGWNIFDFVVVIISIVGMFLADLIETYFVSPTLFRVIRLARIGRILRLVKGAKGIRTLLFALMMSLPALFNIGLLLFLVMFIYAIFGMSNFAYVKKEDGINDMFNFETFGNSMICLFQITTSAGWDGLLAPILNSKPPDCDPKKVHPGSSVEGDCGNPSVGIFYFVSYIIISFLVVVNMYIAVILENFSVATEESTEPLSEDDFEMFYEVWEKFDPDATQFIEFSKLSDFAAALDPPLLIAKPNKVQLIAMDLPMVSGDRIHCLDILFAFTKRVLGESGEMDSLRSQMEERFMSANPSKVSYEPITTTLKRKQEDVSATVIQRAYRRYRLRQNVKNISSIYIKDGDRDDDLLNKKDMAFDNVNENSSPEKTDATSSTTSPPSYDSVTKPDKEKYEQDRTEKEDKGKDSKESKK
T1 sequence (Q07699 19-218, further chain): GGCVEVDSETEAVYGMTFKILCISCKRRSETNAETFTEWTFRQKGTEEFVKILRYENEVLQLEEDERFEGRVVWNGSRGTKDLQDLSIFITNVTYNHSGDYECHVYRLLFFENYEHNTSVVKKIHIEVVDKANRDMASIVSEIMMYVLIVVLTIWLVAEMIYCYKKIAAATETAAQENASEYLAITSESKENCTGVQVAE
Conditions: whole-cell patch clamp, HEK293T, hNav1.7 with β1 and β2; held at -90 mV, step to 0 mV; mean ± S.E.M., n = 3-7; SEM; read-out: IC50 for hNav1.7.

For assay [2], the target named is T2, rKv4.2 (Rattus norvegicus, UniProt Q63881).
T2 construct: expressed in transfected cells; host or cells: HEK293T
T2 sequence (Q63881 1-630): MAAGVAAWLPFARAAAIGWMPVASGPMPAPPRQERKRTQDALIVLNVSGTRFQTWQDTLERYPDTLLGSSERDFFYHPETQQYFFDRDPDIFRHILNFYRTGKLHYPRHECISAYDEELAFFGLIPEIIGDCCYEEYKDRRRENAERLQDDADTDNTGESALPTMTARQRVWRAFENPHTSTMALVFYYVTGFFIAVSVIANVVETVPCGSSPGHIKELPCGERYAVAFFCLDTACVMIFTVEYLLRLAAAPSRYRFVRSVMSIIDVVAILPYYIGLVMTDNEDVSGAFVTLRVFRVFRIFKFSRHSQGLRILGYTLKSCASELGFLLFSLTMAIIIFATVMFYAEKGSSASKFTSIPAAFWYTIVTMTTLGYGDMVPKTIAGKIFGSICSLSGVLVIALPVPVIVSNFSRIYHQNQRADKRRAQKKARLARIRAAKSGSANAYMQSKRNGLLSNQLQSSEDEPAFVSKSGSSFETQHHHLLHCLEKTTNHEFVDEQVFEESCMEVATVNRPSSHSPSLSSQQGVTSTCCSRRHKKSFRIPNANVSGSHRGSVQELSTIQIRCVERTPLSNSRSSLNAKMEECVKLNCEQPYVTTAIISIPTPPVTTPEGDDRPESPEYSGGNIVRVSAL
Conditions: whole-cell patch clamp, HEK293T; mean ± SEM, n = 3-8; SEM; read-out: IC50 on rKv4.2 WT. For orientation: In patch-clamp work, channel activity is measured electrically.

Assay [3] concerns the target T3, rKv4.3 (Rattus norvegicus, UniProt Q62897).
T3 construct: expressed in transfected cells; host or cells: HEK293T
T3 sequence (Q62897 1-655): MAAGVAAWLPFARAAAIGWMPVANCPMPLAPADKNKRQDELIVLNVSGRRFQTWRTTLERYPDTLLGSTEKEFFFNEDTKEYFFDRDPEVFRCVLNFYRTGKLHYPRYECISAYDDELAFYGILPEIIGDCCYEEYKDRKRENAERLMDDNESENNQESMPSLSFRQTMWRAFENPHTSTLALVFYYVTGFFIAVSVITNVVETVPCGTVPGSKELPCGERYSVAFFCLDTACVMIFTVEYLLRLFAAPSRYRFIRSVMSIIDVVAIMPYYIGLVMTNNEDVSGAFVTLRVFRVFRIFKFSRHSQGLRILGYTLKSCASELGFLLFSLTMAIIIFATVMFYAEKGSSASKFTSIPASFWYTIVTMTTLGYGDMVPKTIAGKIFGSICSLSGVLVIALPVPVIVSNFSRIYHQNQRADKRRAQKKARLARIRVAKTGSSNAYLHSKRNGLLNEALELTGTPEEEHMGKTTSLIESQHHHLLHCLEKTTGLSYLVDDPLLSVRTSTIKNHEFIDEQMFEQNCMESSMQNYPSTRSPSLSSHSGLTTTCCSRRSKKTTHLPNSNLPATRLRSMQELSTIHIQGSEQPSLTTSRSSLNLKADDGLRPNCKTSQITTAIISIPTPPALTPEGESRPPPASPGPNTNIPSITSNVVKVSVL
Conditions: whole-cell patch clamp, HEK293T, mean ± S.E.M., SEM.

Assay [4] addresses T4, rKv4.2 V278A (Rattus norvegicus, UniProt Q63881, V278A).
T4 construct: expressed in transfected cells; host or cells: HEK293T
T4 sequence (Q63881 1-630 V278A): T2 sequence (Q63881 1-630) with V278A
Conditions: mean ± SEM.

Assay [5] addresses T5, rKv4.2 N282A (Rattus norvegicus, UniProt Q63881, N282A).
T5 construct: expressed in transfected cells; host or cells: HEK293T
T5 sequence (Q63881 1-630 N282A): T2 sequence (Q63881 1-630) with N282A
Conditions: mean ± SEM.

The mark [6] stands for this setting: held at -80 mV, step to 0 mV, n = 3-8.

Take `CC(C)C[C@H](NC(=O)[C@H](Cc1ccc(O)cc1)NC(=O)[C@@H](NC(=O)[C@H](CCCCN)NC(=O)[C@@H]1CSSC[C@@H]2NC(=O)[C@H](CCC(=O)O)NC(=O)[C@H](CC(N)=O)NC(=O)[C@H](CCCCN)NC(=O)CNC(=O)[C@@H]3CCCN3C(=O)[C@H]([C@@H](C)O)NC(=O)[C@@H]3CSSC[C@H](NC(=O)[C@H](C)NC(=O)[C@H](Cc4ccc(O)cc4)NC(=O)[C@H](CC(N)=O)NC(=O)[C@@H]4CCCN4C(=O)[C@H](CSSC[C@H](NC(=O)CN)C(=O)N[C@@H](CCCCN)C(=O)NCC(=O)N[C@@H](Cc4ccccc4)C(=O)NCC(=O)N[C@@H](CC(=O)O)C(=O)N[C@@H](CO)C(=O)N3)NC2=O)C(=O)N[C@@H](CO)C(=O)N[C@@H](CO)C(=O)N[C@@H](CCCCN)C(=O)N[C@@H](Cc2c[nH]cn2)C(=O)N[C@@H](CCCCN)C(=O)N[C@@H](Cc2c[nH]c3ccccc23)C(=O)N1)C(C)C)C(N)=O` [HNTX-III] (H-GCKGFGDSCTPGKNECCPNYACSSKHKWCKVYL-NH2; disulfide 2-17, 9-22, 16-29): the IC50 in assay [1] came to 207 ± 57.2 nM; in assay [2], 162 ± 23 nM; in assay [3] (setting [6]), 373 ± 65.5 nM; in assay [4], 177 ± 63 nM; in assay [5], 8 ± 2 nM.
With `CC[C@H](C)[C@@H]1NC(=O)[C@@H]2CSSC[C@@H]3NC(=O)[C@H](C(C)C)NC(=O)[C@H](CC(C)C)NC(=O)[C@H](CC(N)=O)NC(=O)[C@@H]4CCCN4C(=O)[C@H](CCCNC(=N)N)NC(=O)[C@H](CSSC[C@H](NC(=O)[C@@H](N)CC(=O)O)C(=O)N[C@@H](CC(C)C)C(=O)NCC(=O)N[C@@H](C)C(=O)N[C@@H](Cc4ccccc4)C(=O)N[C@@H](CCCNC(=N)N)C(=O)N[C@@H](CCCCN)C(=O)N2)NC(=O)[C@H](CSSC[C@@H](C(=O)N[C@@H](CCCCN)C(=O)N[C@@H](Cc2ccc(O)cc2)C(=O)N[C@H](C(=O)N[C@@H](Cc2ccccc2)C(N)=O)C(C)C)NC(=O)[C@H](Cc2c[nH]c4ccccc24)NC(=O)[C@H](CCCNC(=N)N)NC(=O)[C@H](Cc2c[nH]cn2)NC(=O)[C@H](C)NC(=O)[C@H](CO)NC(=O)[C@H](CO)NC3=O)NC(=O)[C@H](CCCCN)NC(=O)[C@H](CC(=O)O)NC(=O)[C@H](CC(N)=O)NC(=O)[C@H](CC(=O)O)NC(=O)[C@@H]2CCCN2C1=O` [mGpTx1-SA] (H-DCLGAFRKCIPDNDKCCRPNLVCSSAHRWCKYVF-NH2; disulfide 2-17, 9-23, 16-30), the IC50 in assay [1] was 40.3 ± 3.2 nM; in assay [2] it was 30000 ± 9000 nM; in assay [3] (n = 5), 2000 ± 300 nM.
Consider `CC[C@H](C)[C@@H]1NC(=O)[C@@H]2CSSC[C@@H]3NC(=O)[C@H](C(C)C)NC(=O)[C@H](CC(C)C)NC(=O)[C@H](CC(N)=O)NC(=O)[C@@H]4CCCN4C(=O)[C@H](CCCNC(=N)N)NC(=O)[C@H](CSSC[C@H](NC(=O)[C@@H](N)CC(=O)O)C(=O)N[C@@H](CC(C)C)C(=O)NCC(=O)N[C@@H](C)C(=O)N[C@@H](Cc4ccccc4)C(=O)N[C@@H](CCCNC(=N)N)C(=O)N[C@@H](CCCCN)C(=O)N2)NC(=O)[C@H](CSSC[C@@H](C(=O)N[C@@H](CCCCN)C(=O)N[C@@H](Cc2ccc(O)cc2)C(=O)N[C@H](C(=O)N[C@@H](Cc2ccccc2)C(N)=O)C(C)C)NC(=O)[C@H](Cc2c[nH]c4ccccc24)NC(=O)[C@H](CCCNC(=N)N)NC(=O)[C@H](Cc2cnc[nH]2)NC(=O)[C@H](CC(C)C)NC(=O)[C@H](CCCNC(=N)N)NC(=O)[C@H](CO)NC3=O)NC(=O)[C@H](CCCCN)NC(=O)[C@H](CC(=O)O)NC(=O)[C@H](CC(N)=O)NC(=O)[C@H](CC(=O)O)NC(=O)[C@@H]2CCCN2C1=O` [mGpTx1] (H-DCLGAFRKCIPDNDKCCRPNLVCSRLHRWCKYVF-NH2; disulfide 2-17, 9-23, 16-30), for which the IC50 in assay [1] is 8 ± 1.2 nM; in assay [2], 81 ± 16 nM; in assay [3] (setting [6]) it was 56 ± 4.8 nM; in assay [4] it was 2850 ± 1310 nM; in assay [5], 17 ± 5 nM.
Consider `CSCC[C@@H]1NC(=O)CNC(=O)[C@H](CCC(=O)O)NC(=O)[C@@H]2CSSC[C@H](NC(=O)[C@@H](N)Cc3ccc(O)cc3)C(=O)N[C@@H](CCC(N)=O)C(=O)N[C@@H](CCCCN)C(=O)N[C@@H](Cc3c[nH]c4ccccc34)C(=O)N[C@@H](CCSC)C(=O)N[C@@H](Cc3c[nH]c4ccccc34)C(=O)N[C@@H]([C@@H](C)O)C(=O)N[C@H]3CSSC[C@H](NC(=O)[C@H](C(C)C)NC1=O)C(=O)N[C@@H](CCCNC(=N)N)C(=O)N[C@@H](CC(C)C)C(=O)N[C@@H](Cc1c[nH]c4ccccc14)C(=O)N[C@H](C(=O)N[C@@H](CCCCN)C(=O)N[C@@H](CCCCN)C(=O)N[C@@H](CCCCN)C(=O)N[C@@H](CC(C)C)C(=O)N[C@@H](Cc1c[nH]c4ccccc14)C(=O)O)CSSC[C@H](NC(=O)[C@H](CCCCN)NC(=O)[C@H](CCCNC(=N)N)NC(=O)[C@H](CCC(=O)O)NC(=O)[C@H](CO)NC(=O)[C@H](CC(=O)O)NC3=O)C(=O)N2` [ProTx-II], for which the IC50 in assay [2] was determined as 5 ± 2 nM; in assay [3] (setting [6]), 5.1 ± 0.4 nM; in assay [4], 10 ± 2 nM; in assay [5], 7 ± 1 nM.
